# The source made the active and inactive calls. No cut-off for these calls is given here.
# How the values were obtained:
# [1] = Cytotoxicity against green monkey Vero cells incubated for 48 hrs by CCK-8 assay; assay type: toxicity, cell-based; conditions: green monkey (Chlorocebus sabaeus)
# Acinetobacter baumannii [2] = assay: Antibacterial activity against multi-drug resistant Acinetobacter baumannii 5 clinical isolate assessed as bacterial growth inhibition in presence of CAMHB medium by broth microdilution method; assay type: functional
# Acinetobacter baumannii [3] = assay: Antibacterial activity against multi-drug resistant Acinetobacter baumannii 1 clinical isolate assessed as bacterial growth inhibition in presence of CAMHB medium by broth microdilution method; assay type: functional
# Acinetobacter baumannii [4] = assay: Antibacterial activity against Acinetobacter baumannii ATCC 19606 assessed as bacterial growth inhibition in presence of CAMHB medium by broth microdilution method; assay type: functional
# [5] = Cytotoxicity against dog MDCK cells incubated for 48 hrs by CCK-8 assay; assay type: toxicity, cell-based; conditions: dog (Canis lupus familiaris)
# Escherichia coli [6] = assay: Antibacterial activity against multi-drug resistant Escherichia coli 4 clinical isolate assessed as bacterial growth inhibition in presence of CAMHB medium by broth microdilution method; assay type: functional
# [7] = Binding affinity to His-tagged LptA (unknown origin) assessed as dissociation constant incubated for 60 to 120 s by BLI analysis
# Acinetobacter baumannii [8] = assay: Antibacterial activity against multi-drug resistant Acinetobacter baumannii 2 clinical isolate assessed as bacterial growth inhibition in presence of CAMHB medium by broth microdilution method; assay type: functional
# Escherichia coli [9] = assay: Antibacterial activity against multi-drug resistant Escherichia coli 5 clinical isolate assessed as bacterial growth inhibition in presence of CAMHB medium by broth microdilution method; assay type: functional
# Saccharomyces cerevisiae = assay: Antimicrobial activity against yeast AH109 expressing T/53 assessed as growth inhibition incubated for 48 hrs; assay type: functional
# Acinetobacter baumannii [10] = assay: Antibacterial activity against multi-drug resistant Acinetobacter baumannii 4 clinical isolate assessed as bacterial growth inhibition in presence of CAMHB medium by broth microdilution method; assay type: functional
# [11] = Selectivity index, ratio of MIC for antimicrobial activity against yeast AH109 expressing T/53 to MIC for inhibition of LptA /LptC (unknown origin) interaction expressed in yeast AH109
# [12] = Inhibition of LptA /LptC (unknown origin) interaction expressed in yeast AH109 assessed as growth inhibition incubated for 48 hrs
# Escherichia coli [13] = assay: Antibacterial activity against ESBL(+) producing Escherichia coli ATCC 35218 assessed as bacterial growth inhibition in presence of CAMHB medium by broth microdilution method; assay type: functional
# Escherichia coli [14] = assay: Antibacterial activity against multi-drug resistant Escherichia coli 3 clinical isolate assessed as bacterial growth inhibition in presence of CAMHB medium by broth microdilution method; assay type: functional
# Escherichia coli [15] = assay: Antibacterial activity against Escherichia coli ATCC 25922 assessed as bacterial growth inhibition in presence of CAMHB medium by broth microdilution method; assay type: functional
# Acinetobacter baumannii [16] = assay: Antibacterial activity against multi-drug resistant Acinetobacter baumannii 3 clinical isolate assessed as bacterial growth inhibition in presence of CAMHB medium by broth microdilution method; assay type: functional
# Klebsiella pneumoniae = assay: Antibacterial activity against Klebsiella pneumoniae ATCC […] assessed as bacterial growth inhibition in presence of CAMHB medium by broth microdilution method; assay type: functional
# Escherichia coli [17] = assay: Antibacterial activity against multi-drug resistant Escherichia coli 1 clinical isolate assessed as bacterial growth inhibition in presence of CAMHB medium by broth microdilution method; assay type: functional
# Pseudomonas aeruginosa = assay: Antibacterial activity against Pseudomonas aeruginosa PAO1 assessed as bacterial growth inhibition in presence of CAMHB medium by broth microdilution method; assay type: functional
# Escherichia coli [18] = assay: Antibacterial activity against multi-drug resistant Escherichia coli 2 clinical isolate assessed as bacterial growth inhibition in presence of CAMHB medium by broth microdilution method; assay type: functional
# Escherichia coli [19] = assay: Antibacterial activity against Escherichia coli ATCC 25922 infected in Galleria mellonella assessed as increase in larvae survival rate at 1.25 mg/kg measured upto 96 hrs relative to control; assay type: functional
# Escherichia coli [20] = assay: Induction of morphological changes in Escherichia coli ATCC 25922 assessed as appearance of incomplete outer membrane in presence of LB medium incubated for 12 hrs by transmission electron microscopic analysis; assay type: functional, organism-based
# Escherichia coli [21] = assay: Induction of morphological changes in Escherichia coli ATCC 25922 assessed as cell elongation in presence of LB medium measured after 1 to 3 hrs by crystal violet staining based light microscopic analysis; assay type: functional, organism-based; conditions: time 1-3 hrs
# Escherichia coli [22] = assay: Induction of morphological changes in Escherichia coli ATCC 25922 assessed as appearance of filamentous cell in presence of LB medium measured after 1 to 3 hrs by crystal violet staining based light microscopic analysis; assay type: functional, organism-based; conditions: time 1-3 hrs
# Escherichia coli [23] = assay: Antibacterial activity against Escherichia coli ATCC 25922 infected in Galleria mellonella assessed as increase in larvae survival rate at 10 mg/kg measured after 6 days post-inoculation relative to control; assay type: functional; conditions: ATCC 25922, 144 h, time 6 day
# Escherichia coli [24] = assay: Induction of outer membrane damage in Escherichia coli ATCC 25922 assessed as increase in EtBr fluorescence intensity in presence of LB medium incubated for 12 hrs by fluorescence plate-reader analysis; assay type: functional, organism-based
# Escherichia coli [25] = assay: Antibacterial activity against Escherichia coli ATCC 25922 infected in Galleria mellonella assessed as increase in larvae survival rate measured upto 96 hrs; assay type: functional, organism-based; conditions: dose 1.25-10 mg/kg
compound,measurement,setting,value
Clc1cc2c(c3ncccc13)OCN(CCc1ccccc1)C2,IC50 at 48 h,[1],14.3 µg/mL
same,MIC,Acinetobacter baumannii [2],100 µg/mL
same,MIC,Acinetobacter baumannii [3],100 µg/mL
same,MIC,Acinetobacter baumannii [4],3.12 µg/mL
same,IC50 at 48 h,[5],7.24 µg/mL
same,MIC,Escherichia coli [6],50 µg/mL
same,Kd,[7],1.49 nM
same,MIC,Acinetobacter baumannii [8],100 µg/mL
same,MIC,Escherichia coli [9],50 µg/mL
same,MIC,Saccharomyces cerevisiae,25 µg/mL
same,MIC,Acinetobacter baumannii [10],100 µg/mL
same,Selectivity Index,[11],2
same,MIC,[12],12.5 µg/mL
same,MIC,Escherichia coli [13],> 100 µg/mL
same,MIC,Escherichia coli [14],50 µg/mL
same,MIC,Escherichia coli [15],6.25 µg/mL
same,MIC,Acinetobacter baumannii [16],100 µg/mL
same,MIC,Klebsiella pneumoniae,100 µg/mL
same,MIC,Escherichia coli [17],50 µg/mL
same,MIC,Pseudomonas aeruginosa,50 µg/mL
same,MIC,Escherichia coli [18],50 µg/mL
Clc1ccc(CN2COc3c(cc(Cl)c4cccnc34)C2)cc1,IC50 at 48 h,[1],> 50 µg/mL
same,MIC,Acinetobacter baumannii [2],6.25 µg/mL
same,MIC,Acinetobacter baumannii [3],12.5 µg/mL
same,MIC,Acinetobacter baumannii [4],3.12 µg/mL
same,IC50 at 48 h,[5],47.8 µg/mL
same,survival at 1.25 mg/kg,Escherichia coli [19],50%
same,MIC,Escherichia coli [6],50 µg/mL
same,Kd,[7],54.4 nM
same,Activity,Escherichia coli [20],Active
same,MIC,Acinetobacter baumannii [8],6.25 µg/mL
same,Activity,Escherichia coli [21],Active
same,MIC,Escherichia coli [9],50 µg/mL
same,Activity,Escherichia coli [22],Active
same,MIC,Saccharomyces cerevisiae,25 µg/mL
same,MIC,Acinetobacter baumannii [10],12.5 µg/mL
same,Selectivity Index,[11],2
same,MIC,[12],12.5 µg/mL
same,MIC,Escherichia coli [13],25 µg/mL
same,MIC,Escherichia coli [14],50 µg/mL
same,MIC,Escherichia coli [15],6.25 µg/mL
same,survival at 10 mg/kg,Escherichia coli [23],80%
same,MIC,Acinetobacter baumannii [16],12.5 µg/mL
same,MIC,Klebsiella pneumoniae,50 µg/mL
same,MIC,Escherichia coli [17],50 µg/mL
same,MIC,Pseudomonas aeruginosa,25 µg/mL
same,Activity,Escherichia coli [24],Dose-dependent-effect
same,Activity,Escherichia coli [25],Dose-dependent-effect
same,MIC,Escherichia coli [18],50 µg/mL
Clc1cc2c(c3ncccc13)OCN(CCCc1ccccc1)C2,IC50 at 48 h,[1],> 50 µg/mL
same,MIC,Acinetobacter baumannii [2],6.25 µg/mL
same,MIC,Acinetobacter baumannii [3],6.25 µg/mL
same,MIC,Acinetobacter baumannii [4],3.12 µg/mL
same,IC50 at 48 h,[5],43.8 µg/mL
same,survival at 1.25 mg/kg,Escherichia coli [19],60%
same,MIC,Escherichia coli [6],50 µg/mL
same,Kd,[7],32.2 nM
same,Activity,Escherichia coli [20],Active
same,MIC,Acinetobacter baumannii [8],12.5 µg/mL
same,Activity,Escherichia coli [21],Active
same,MIC,Escherichia coli [9],50 µg/mL
same,Activity,Escherichia coli [22],Active
same,MIC,Saccharomyces cerevisiae,25 µg/mL
same,MIC,Acinetobacter baumannii [10],12.5 µg/mL
same,Selectivity Index,[11],4
same,MIC,[12],6.25 µg/mL
same,MIC,Escherichia coli [13],25 µg/mL
same,MIC,Escherichia coli [14],50 µg/mL
same,MIC,Escherichia coli [15],6.25 µg/mL
same,survival at 10 mg/kg,Escherichia coli [23],70%
same,MIC,Acinetobacter baumannii [16],12.5 µg/mL
same,MIC,Klebsiella pneumoniae,100 µg/mL
same,MIC,Escherichia coli [17],50 µg/mL
same,MIC,Pseudomonas aeruginosa,50 µg/mL
same,Activity,Escherichia coli [24],Dose-dependent-effect
same,Activity,Escherichia coli [25],Dose-dependent-effect
same,MIC,Escherichia coli [18],50 µg/mL
